Laboratory results published in ChEMBL document CHEMBL5236590, “Discovery of Novel N-(5-(Pyridin-3-yl)-1H-indazol-3-yl)benzamide Derivatives as Potent Cyclin-Dependent Kinase 7 Inhibitors for the Treatment of Autosomal Dominant Polycystic Kidney Disease” (J Med Chem, 2022).
Calls of active or inactive are those of the source. No cut-off for these calls is given here.

Experiments:
[1] = molecular target: Tyrosine-protein kinase ABL1 (Homo sapiens) (UniProt P00519); assay: Inhibition of human partial length Ab1 (S229/K512) expressed in mammalian system at 1 uM by KINOMEscan analysis relative to control
[2] = tested on: Mus musculus; assay: Reduction in kidney size in kidney-specific Pkd1 knockout ADPKD mouse model assessed as renal cystic index at 5 mg/kg by HE staining analysis (reference value: 23 +/- 1.3%); assay type: functional, organism-based
[3] = molecular target: Aurora kinase A (Homo sapiens) (UniProt O14965); assay: Inhibition of human partial length Aurora-A (E122/K401) expressed in mammalian system at 1 uM by KINOMEscan analysis relative to control
[4] = molecular target: Casein kinase II subunit alpha' (Homo sapiens) (UniProt P19784); assay: Inhibition of human full length wild type CK2alpha2 expressed in mammalian system at 1 uM by KINOMEscan analysis relative to control
[5] = molecular target: RAC-alpha serine/threonine-protein kinase (Homo sapiens) (UniProt P31749); assay: Inhibition of PKBalpha (unknown origin) at 1 uM relative to control
[6] = tested on: Mus musculus; assay: Reduction in cyst formation in kidney-specific Pkd1 knockout ADPKD mouse model assessed as renal cystic index at 5 mg/kg by HE staining analysis; assay type: functional, organism-based
[7] = tested on: Mus musculus; assay: Reduction in cyst size in kidney-specific Pkd1 knockout ADPKD mouse model assessed as renal cystic index at 5 mg/kg by HE staining analysis; assay type: functional, organism-based
[8] = molecular target: Dual specificity mitogen-activated protein kinase kinase 1 (Homo sapiens) (UniProt Q02750); assay: Inhibition of human full length wild type MEK1 expressed in mammalian system at 1 uM by KINOMEscan analysis relative to control
[9] = molecular target: MAP kinase-activated protein kinase 2 (Homo sapiens) (UniProt P49137); assay: Inhibition of human partial length wild type MAPKAP-K2 expressed in bacterial system at 1 uM by KINOMEscan analysis relative to control
[10] = molecular target: T1, Cyclin-dependent kinase 7 (Homo sapiens, UniProt P50613); assay: Irreversible inhibition of CDK7 (unknown origin) assessed as activity measured after 3 hrs by jump dilution method
[11] = molecular target: Insulin-like growth factor 1 receptor (Homo sapiens) (UniProt P08069); assay: Inhibition of human partial length wild type IGF-1R (L972/D1294) expressed in bacterial system at 1 uM by KINOMEscan analysis relative to control
[12] = Observed MRT (infinitive) in ICR mouse at 5 mg/kg, sc single dose measured upto 24 hrs; assay type: ADME, organism-based; conditions: in vivo
[13] = molecular target: Serine/threonine-protein kinase pim-1 (Homo sapiens) (UniProt P11309); assay: Inhibition of human partial length wild type Pim-1 (M1/E291) expressed in bacterial system at 1 uM by KINOMEscan analysis relative to control
[14] = molecular target: Serine/threonine-protein kinase Nek2 (Homo sapiens) (UniProt P51955); assay: Inhibition of human partial length wild type NEK2 expressed in bacterial system at 1 uM by KINOMEscan analysis relative to control
[15] = molecular target: Serine/threonine-protein kinase 10 (Homo sapiens) (UniProt O94804); assay: Inhibition of human partial length wild type LOK (E16/V314) expressed in bacterial system at 1 uM by KINOMEscan analysis relative to control
[16] = molecular target: Protein kinase C theta type (Homo sapiens) (UniProt Q04759); assay: Inhibition of human partial length TPKCtheta (L350/S706) expressed in bacterial system at 1 uM by KINOMEscan analysis relative to control
[17] = Observed MRT (infinitive) in ICR mouse at 5 mg/kg, iv single dose measured upto 24 hrs; assay type: ADME, organism-based; conditions: in vivo
[18] = Half life in ICR mouse at 5 mg/kg, iv single dose measured upto 24 hrs; assay type: ADME, organism-based; conditions: in vivo
[19] = molecular target: Casein kinase I isoform gamma-1 (Homo sapiens) (UniProt Q9HCP0); assay: Inhibition of human partial length wild type CKlgamma1 (T15/S353) expressed in bacterial system at 1 uM by KINOMEscan analysis relative to control
[20] = molecular target: T1, Cyclin-dependent kinase 7; assay: Inhibition of CDK7 (unknown origin) assessed as phosphorylation of ULight 4EBP1 peptide substrate measured after 2 hrs by FRET-based LANCE Ultra KinSelect assay
[21] = molecular target: ALK tyrosine kinase receptor (Homo sapiens) (UniProt Q9UM73); assay: Inhibition of human partial length ALK (I1088/E1409) expressed in mammalian system at 1 uM by KINOMEscan analysis relative to control
[22] = molecular target: PI3K p110 beta/p85 alpha (Homo sapiens) (UniProt P27986+P42338); assay: Inhibition of P13 kinase p110beta/p85alpha (unknown origin) at 1 uM relative to control; assay type: protein-complex assay
[23] = Tmax in ICR mouse at 5 mg/kg, sc single dose measured upto 24 hrs; assay type: ADME, organism-based; conditions: in vivo
[24] = molecular target: PI3-kinase p110-alpha/p85-alpha (Homo sapiens) (UniProt P27986+P42336); assay: Inhibition of PI3 kinase p110alpha/p85alpha (unknown origin) at 1 uM relative to control; assay type: protein-complex assay
[25] = molecular target: Tyrosine-protein kinase Lyn (Homo sapiens) (UniProt P07948); assay: Inhibition of human partial length wild type Lyn (C219/Q511) expressed in bacterial system at 1 uM by KINOMEscan analysis relative to control
[26] = molecular target: Mitogen-activated protein kinase kinase kinase 5 (Homo sapiens) (UniProt Q99683); assay: Inhibition of human partial length wild type ASK1 expressed in bacterial system at 1 uM by KINOMEscan analysis relative to control
[27] = species: Homo sapiens; assay: Inhibition of human partial length wild type PRAK (M1/R415) expressed in mammalian system at 1 uM by KINOMEscan analysis relative to control
[28] = molecular target: Mitogen-activated protein kinase kinase kinase 9 (Homo sapiens) (UniProt P80192); assay: Inhibition of human partial length wild type MLK1 expressed in bacterial system at 1 uM by KINOMEscan analysis relative to control
[29] = molecular target: Cyclin-dependent kinase 9 (Homo sapiens, UniProt P50750); assay: Inhibition of CDK9 (unknown origin)
[30] = molecular target: Cyclin-dependent kinase 2 (Homo sapiens, UniProt P24941); assay: Inhibition of CDK2 (unknown origin) assessed as phosphorylation of ULight 4EBP1 peptide substrate measured after 2 hrs by FRET-based LANCE Ultra KinSelect assay
[31] = molecular target: Ribosomal protein S6 kinase alpha-1 (Homo sapiens) (UniProt Q15418); assay: Inhibition of human partial length wild type Rsk1 (M1/E388) expressed in bacterial system at 1 uM by KINOMEscan analysis relative to control
[32] = molecular target: Ephrin type-A receptor 5 (Homo sapiens) (UniProt P54756); assay: Inhibition of human partial length wild type EphA5 (T627/V930) expressed in bacterial system at 1 uM by KINOMEscan analysis relative to control
[33] = molecular target: Calcium/calmodulin-dependent protein kinase type 1 (Homo sapiens) (UniProt Q14012); assay: Inhibition of human partial length wild type CaMKI expressed in bacterial system at 1 uM by KINOMEscan analysis relative to control
Sequence of Calcium/calmodulin-dependent protein kinase type 1 (Homo sapiens) (Q14012 whole entry, looked up): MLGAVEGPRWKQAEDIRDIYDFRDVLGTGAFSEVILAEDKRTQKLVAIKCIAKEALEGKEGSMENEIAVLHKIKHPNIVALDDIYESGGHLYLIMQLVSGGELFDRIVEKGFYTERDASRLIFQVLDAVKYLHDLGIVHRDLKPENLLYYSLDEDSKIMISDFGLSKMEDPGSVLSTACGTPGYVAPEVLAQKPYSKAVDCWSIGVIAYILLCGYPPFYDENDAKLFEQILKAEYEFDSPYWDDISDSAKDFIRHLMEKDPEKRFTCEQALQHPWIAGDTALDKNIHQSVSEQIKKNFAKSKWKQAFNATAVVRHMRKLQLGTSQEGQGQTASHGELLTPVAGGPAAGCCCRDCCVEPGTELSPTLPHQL

T1 sequence (P50613 whole entry): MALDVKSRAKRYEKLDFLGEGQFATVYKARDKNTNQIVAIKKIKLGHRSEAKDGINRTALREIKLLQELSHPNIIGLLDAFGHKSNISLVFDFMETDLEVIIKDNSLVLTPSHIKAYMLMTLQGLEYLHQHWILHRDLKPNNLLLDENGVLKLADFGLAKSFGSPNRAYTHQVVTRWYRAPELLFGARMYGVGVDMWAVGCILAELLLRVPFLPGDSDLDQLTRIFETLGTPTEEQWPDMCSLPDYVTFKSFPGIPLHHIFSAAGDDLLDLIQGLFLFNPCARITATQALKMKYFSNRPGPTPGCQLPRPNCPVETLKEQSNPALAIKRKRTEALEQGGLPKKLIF
Sequence of Dual specificity mitogen-activated protein kinase kinase 1 (Homo sapiens) (Q02750 whole entry): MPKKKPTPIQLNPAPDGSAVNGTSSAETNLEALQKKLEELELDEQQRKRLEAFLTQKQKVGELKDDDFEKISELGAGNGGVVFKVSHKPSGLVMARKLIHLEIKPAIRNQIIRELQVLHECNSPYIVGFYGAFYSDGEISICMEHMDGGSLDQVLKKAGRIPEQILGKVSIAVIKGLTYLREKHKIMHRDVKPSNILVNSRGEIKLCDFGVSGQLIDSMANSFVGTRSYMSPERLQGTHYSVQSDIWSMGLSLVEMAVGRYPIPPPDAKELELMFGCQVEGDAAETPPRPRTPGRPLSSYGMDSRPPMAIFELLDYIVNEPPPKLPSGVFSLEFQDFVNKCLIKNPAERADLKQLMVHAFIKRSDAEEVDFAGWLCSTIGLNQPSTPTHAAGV
Sequence of Protein kinase C theta type (Homo sapiens) (Q04759 whole entry, looked up): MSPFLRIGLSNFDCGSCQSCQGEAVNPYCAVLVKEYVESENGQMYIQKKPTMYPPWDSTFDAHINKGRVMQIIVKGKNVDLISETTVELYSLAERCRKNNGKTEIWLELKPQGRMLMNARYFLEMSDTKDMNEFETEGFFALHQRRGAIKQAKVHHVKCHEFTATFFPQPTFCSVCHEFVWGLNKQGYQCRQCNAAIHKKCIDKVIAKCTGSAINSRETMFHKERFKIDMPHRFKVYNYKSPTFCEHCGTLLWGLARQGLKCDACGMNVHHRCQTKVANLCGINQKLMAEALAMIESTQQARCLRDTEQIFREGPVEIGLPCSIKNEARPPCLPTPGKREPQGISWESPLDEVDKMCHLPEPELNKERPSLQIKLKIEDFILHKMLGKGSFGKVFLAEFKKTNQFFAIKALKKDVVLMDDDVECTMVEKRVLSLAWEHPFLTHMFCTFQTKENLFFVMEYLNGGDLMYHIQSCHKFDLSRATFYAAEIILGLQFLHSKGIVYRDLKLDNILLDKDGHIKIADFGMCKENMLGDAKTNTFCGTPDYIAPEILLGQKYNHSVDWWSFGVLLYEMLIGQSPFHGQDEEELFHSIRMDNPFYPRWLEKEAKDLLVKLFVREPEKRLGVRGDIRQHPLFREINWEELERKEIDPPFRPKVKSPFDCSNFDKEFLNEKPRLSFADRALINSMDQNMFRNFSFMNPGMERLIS
Sequence of RAC-alpha serine/threonine-protein kinase (Homo sapiens) (P31749 whole entry): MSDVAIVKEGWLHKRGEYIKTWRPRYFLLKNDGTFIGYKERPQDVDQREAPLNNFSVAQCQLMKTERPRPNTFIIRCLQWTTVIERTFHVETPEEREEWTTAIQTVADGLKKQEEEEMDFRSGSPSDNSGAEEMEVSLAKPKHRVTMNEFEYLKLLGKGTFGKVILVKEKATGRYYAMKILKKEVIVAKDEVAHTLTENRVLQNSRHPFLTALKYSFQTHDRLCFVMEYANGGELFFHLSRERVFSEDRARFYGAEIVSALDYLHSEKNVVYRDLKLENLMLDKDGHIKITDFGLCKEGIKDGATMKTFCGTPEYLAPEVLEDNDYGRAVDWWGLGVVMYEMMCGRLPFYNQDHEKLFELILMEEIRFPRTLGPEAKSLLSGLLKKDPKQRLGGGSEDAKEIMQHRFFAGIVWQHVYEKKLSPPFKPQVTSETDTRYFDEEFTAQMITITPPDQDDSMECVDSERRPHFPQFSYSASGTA
Sequence of Casein kinase I isoform gamma-1 (Homo sapiens) (Q9HCP0 whole entry, looked up, canonical isoform): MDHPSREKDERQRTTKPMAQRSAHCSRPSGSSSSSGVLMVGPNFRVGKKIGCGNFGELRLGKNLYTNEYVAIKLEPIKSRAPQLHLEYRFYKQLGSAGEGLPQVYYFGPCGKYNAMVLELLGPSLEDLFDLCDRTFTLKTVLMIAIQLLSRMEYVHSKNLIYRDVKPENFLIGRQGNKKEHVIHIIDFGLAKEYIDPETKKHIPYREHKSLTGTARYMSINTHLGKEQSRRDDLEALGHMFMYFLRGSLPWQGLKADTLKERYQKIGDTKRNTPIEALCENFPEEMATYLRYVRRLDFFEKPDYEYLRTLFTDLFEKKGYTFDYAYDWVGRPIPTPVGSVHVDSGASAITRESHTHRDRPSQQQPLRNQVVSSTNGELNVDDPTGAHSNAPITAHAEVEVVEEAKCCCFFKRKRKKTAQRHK
Sequence of Ephrin type-A receptor 5 (Homo sapiens) (P54756 whole entry): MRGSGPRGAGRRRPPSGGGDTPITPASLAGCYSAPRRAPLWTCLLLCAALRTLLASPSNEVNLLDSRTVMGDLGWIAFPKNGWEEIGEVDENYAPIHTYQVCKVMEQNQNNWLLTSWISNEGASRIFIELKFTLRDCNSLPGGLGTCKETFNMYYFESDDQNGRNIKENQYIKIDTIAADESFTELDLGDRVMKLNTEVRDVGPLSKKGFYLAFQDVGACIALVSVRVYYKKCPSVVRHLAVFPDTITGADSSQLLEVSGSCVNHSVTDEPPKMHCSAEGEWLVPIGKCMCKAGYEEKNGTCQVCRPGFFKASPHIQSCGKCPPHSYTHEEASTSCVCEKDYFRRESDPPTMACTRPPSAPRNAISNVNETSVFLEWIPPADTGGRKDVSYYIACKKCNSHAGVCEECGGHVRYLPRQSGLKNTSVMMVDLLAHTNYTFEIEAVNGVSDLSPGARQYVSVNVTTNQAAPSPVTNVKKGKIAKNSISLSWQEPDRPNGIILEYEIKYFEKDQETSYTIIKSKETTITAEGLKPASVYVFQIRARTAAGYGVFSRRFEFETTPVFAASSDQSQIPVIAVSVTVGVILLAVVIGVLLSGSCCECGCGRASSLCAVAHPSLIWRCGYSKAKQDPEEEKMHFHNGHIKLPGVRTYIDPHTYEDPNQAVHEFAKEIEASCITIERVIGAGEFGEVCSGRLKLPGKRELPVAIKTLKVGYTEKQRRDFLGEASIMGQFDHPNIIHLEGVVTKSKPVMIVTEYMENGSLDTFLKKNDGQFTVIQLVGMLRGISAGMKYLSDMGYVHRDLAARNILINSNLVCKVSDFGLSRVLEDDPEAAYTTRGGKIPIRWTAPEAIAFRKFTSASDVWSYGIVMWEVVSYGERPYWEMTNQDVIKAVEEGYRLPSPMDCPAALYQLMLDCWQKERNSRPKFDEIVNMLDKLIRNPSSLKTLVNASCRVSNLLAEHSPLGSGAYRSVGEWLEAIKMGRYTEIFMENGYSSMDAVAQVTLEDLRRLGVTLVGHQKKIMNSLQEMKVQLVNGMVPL
Sequence of Aurora kinase A (Homo sapiens) (O14965 whole entry): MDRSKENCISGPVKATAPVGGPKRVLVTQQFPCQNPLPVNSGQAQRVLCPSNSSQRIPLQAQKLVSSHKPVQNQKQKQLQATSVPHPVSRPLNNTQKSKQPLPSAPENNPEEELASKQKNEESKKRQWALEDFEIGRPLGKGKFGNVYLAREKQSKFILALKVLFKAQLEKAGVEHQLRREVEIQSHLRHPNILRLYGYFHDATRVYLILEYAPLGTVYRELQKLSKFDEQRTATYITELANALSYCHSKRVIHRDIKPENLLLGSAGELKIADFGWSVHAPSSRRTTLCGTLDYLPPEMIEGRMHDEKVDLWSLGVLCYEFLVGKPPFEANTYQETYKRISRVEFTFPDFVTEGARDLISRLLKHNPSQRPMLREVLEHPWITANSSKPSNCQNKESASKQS
Sequence of Cyclin-dependent kinase 9 (P50750 whole entry): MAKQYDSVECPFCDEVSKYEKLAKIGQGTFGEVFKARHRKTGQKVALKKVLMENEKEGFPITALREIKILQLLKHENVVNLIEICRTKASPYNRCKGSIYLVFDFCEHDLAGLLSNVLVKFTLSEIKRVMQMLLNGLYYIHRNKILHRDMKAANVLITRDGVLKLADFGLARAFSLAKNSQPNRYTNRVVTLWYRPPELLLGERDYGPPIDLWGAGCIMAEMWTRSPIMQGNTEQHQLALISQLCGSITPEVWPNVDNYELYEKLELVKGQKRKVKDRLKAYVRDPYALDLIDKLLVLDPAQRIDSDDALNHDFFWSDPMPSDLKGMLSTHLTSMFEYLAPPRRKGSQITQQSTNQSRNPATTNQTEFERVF
Sequence of Serine/threonine-protein kinase pim-1 (Homo sapiens) (P11309 whole entry, looked up): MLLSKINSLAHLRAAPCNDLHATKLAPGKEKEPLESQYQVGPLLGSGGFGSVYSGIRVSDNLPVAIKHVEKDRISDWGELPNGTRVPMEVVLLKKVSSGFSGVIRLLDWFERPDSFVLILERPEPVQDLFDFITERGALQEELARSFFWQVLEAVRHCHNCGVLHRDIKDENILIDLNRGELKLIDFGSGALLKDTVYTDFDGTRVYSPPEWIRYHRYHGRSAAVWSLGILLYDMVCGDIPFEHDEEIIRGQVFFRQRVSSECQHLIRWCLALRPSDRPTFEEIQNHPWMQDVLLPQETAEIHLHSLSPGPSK

## C=CC(=O)Nc1ccc(C(=O)Nc2n[nH]c3ccc(-c4cncc(NC[C@@H](O)c5ccccc5)c4)cc23)cc1
[1]
  inhibition: < 50%
[2]
  Activity: Active
[3]
  inhibition: 68%
[4]
  inhibition: < 50%
[5]
  inhibition: < 50%
[6]
  Activity: Active
[7]
  Activity: Active
[8]
  inhibition: < 50%
[9]
  inhibition: < 50%
[10]
  inhibition: Active
[11]
  inhibition: < 50%
[12]
  MRT inf: 5 h
[13]
  inhibition: 57%
[14]
  inhibition: < 50%
[15]
  inhibition: < 50%
[16]
  inhibition: 74%
[17]
  MRT inf: 10 h
[18]
  half-life: 18 h
[19]
  inhibition: < 50%
[20]
  IC50: 4 nM
[21]
  inhibition: < 50%
[22]
  inhibition: < 50%
[23]
  Tmax: 1 h
[24]
  inhibition: < 50%
[25]
  inhibition: < 50%
[26]
  inhibition: < 50%
[27]
  inhibition: < 50%
[28]
  inhibition: < 50%
[29]
  IC50: 526 nM
[30]
  IC50: 823 nM
[31]
  inhibition: < 50%
[32]
  inhibition: < 50%
[33]
  inhibition: < 50%
